Source: the NIST ThermoML archive (doi:10.1021/je0400052)
Numbers after ± are expanded uncertainties.

What was measured:
[1] = refractive index (Na D-line) (dimensionless); xn = mol fraction of the nth substance listed; conditions: 101.3 kPa, Liquid
[2] = xn = mol fraction of the nth substance listed; conditions: 101.3 kPa, Liquid

SMILES: CCOC(=O)c1ccccc1 [ethyl benzoate] + CCc1ccccc1
- refractive index ([1]; 303.15 K, x1 = 0.0862): 1.492 ± 0.005
- refractive index ([1]; 303.15 K, x1 = 0.1804): 1.4932 ± 0.005
- refractive index ([1]; 303.15 K, x1 = 0.2589): 1.4934 ± 0.005
- refractive index ([1]; 303.15 K, x1 = 0.3522): 1.4942 ± 0.005
- refractive index ([1]; 303.15 K, x1 = 0.472): 1.496 ± 0.005
- refractive index ([1]; 303.15 K, x1 = 0.5625): 1.4968 ± 0.005
- refractive index ([1]; 303.15 K, x1 = 0.6722): 1.4971 ± 0.005
- refractive index ([1]; 303.15 K, x1 = 0.7675): 1.4992 ± 0.005
- refractive index ([1]; 303.15 K, x1 = 0.8678): 1.4998 ± 0.005
- refractive index ([1]; 303.15 K, x1 = 0.9325): 1.5003 ± 0.005
- refractive index ([1]; 313.15 K, x1 = 0.0862): 1.4911 ± 0.005
- refractive index ([1]; 313.15 K, x1 = 0.1804): 1.4921 ± 0.005
- refractive index ([1]; 313.15 K, x1 = 0.2589): 1.493 ± 0.005
- refractive index ([1]; 313.15 K, x1 = 0.3522): 1.4937 ± 0.005
- refractive index ([1]; 313.15 K, x1 = 0.472): 1.4954 ± 0.005
- refractive index ([1]; 313.15 K, x1 = 0.5625): 1.4959 ± 0.005
- refractive index ([1]; 313.15 K, x1 = 0.6722): 1.4963 ± 0.005
- refractive index ([1]; 313.15 K, x1 = 0.7675): 1.4981 ± 0.005
- refractive index ([1]; 313.15 K, x1 = 0.8678): 1.4992 ± 0.005
- refractive index ([1]; 313.15 K, x1 = 0.9325): 1.4996 ± 0.005
- mass density ([2]; 303.15 K, x1 = 0.0862): 875.1 ± 3.6 kg/m3
- viscosity ([2]; 303.15 K, x1 = 0.0862): 0.643 ± 0.017 mPa·s
- mass density ([2]; 303.15 K, x1 = 0.1804): 892.6 ± 3.7 kg/m3
- viscosity ([2]; 303.15 K, x1 = 0.1804): 0.711 ± 0.019 mPa·s
- mass density ([2]; 303.15 K, x1 = 0.2589): 910.2 ± 3.7 kg/m3
- viscosity ([2]; 303.15 K, x1 = 0.2589): 0.767 ± 0.02 mPa·s
- mass density ([2]; 303.15 K, x1 = 0.3522): 927.2 ± 3.8 kg/m3
- viscosity ([2]; 303.15 K, x1 = 0.3522): 0.857 ± 0.022 mPa·s
- mass density ([2]; 303.15 K, x1 = 0.472): 950.1 ± 3.9 kg/m3
- viscosity ([2]; 303.15 K, x1 = 0.472): 0.97 ± 0.025 mPa·s
- mass density ([2]; 303.15 K, x1 = 0.5625): 967 ± 4 kg/m3
- viscosity ([2]; 303.15 K, x1 = 0.5625): 1.071 ± 0.027 mPa·s
- mass density ([2]; 303.15 K, x1 = 0.6722): 984.9 ± 4.1 kg/m3
- viscosity ([2]; 303.15 K, x1 = 0.6722): 1.206 ± 0.03 mPa·s
- mass density ([2]; 303.15 K, x1 = 0.7675): 1002 ± 4.2 kg/m3
- viscosity ([2]; 303.15 K, x1 = 0.7675): 1.33 ± 0.032 mPa·s
- mass density ([2]; 303.15 K, x1 = 0.8678): 1019 ± 4.3 kg/m3
- viscosity ([2]; 303.15 K, x1 = 0.8678): 1.496 ± 0.036 mPa·s
- mass density ([2]; 303.15 K, x1 = 0.9325): 1040.9 ± 4.4 kg/m3
- viscosity ([2]; 303.15 K, x1 = 0.9325): 1.615 ± 0.039 mPa·s
- mass density ([2]; 313.15 K, x1 = 0.0862): 867 ± 3.9 kg/m3
- viscosity ([2]; 313.15 K, x1 = 0.0862): 0.57 ± 0.016 mPa·s
- mass density ([2]; 313.15 K, x1 = 0.1804): 884.3 ± 4 kg/m3
- viscosity ([2]; 313.15 K, x1 = 0.1804): 0.629 ± 0.017 mPa·s
- mass density ([2]; 313.15 K, x1 = 0.2589): 901.3 ± 4.1 kg/m3
- viscosity ([2]; 313.15 K, x1 = 0.2589): 0.682 ± 0.018 mPa·s
- mass density ([2]; 313.15 K, x1 = 0.3522): 918.1 ± 4.1 kg/m3
- viscosity ([2]; 313.15 K, x1 = 0.3522): 0.745 ± 0.02 mPa·s
- mass density ([2]; 313.15 K, x1 = 0.472): 941.4 ± 4.2 kg/m3
- viscosity ([2]; 313.15 K, x1 = 0.472): 0.844 ± 0.022 mPa·s
- mass density ([2]; 313.15 K, x1 = 0.5625): 960.4 ± 4.3 kg/m3
- viscosity ([2]; 313.15 K, x1 = 0.5625): 0.937 ± 0.024 mPa·s
- mass density ([2]; 313.15 K, x1 = 0.6722): 976.2 ± 4.4 kg/m3
- viscosity ([2]; 313.15 K, x1 = 0.6722): 1.063 ± 0.027 mPa·s
- mass density ([2]; 313.15 K, x1 = 0.7675): 993 ± 4.5 kg/m3
- viscosity ([2]; 313.15 K, x1 = 0.7675): 1.169 ± 0.029 mPa·s
- mass density ([2]; 313.15 K, x1 = 0.8678): 1009.7 ± 4.6 kg/m3
- viscosity ([2]; 313.15 K, x1 = 0.8678): 1.268 ± 0.031 mPa·s
- mass density ([2]; 313.15 K, x1 = 0.9325): 1027.4 ± 4.7 kg/m3
- viscosity ([2]; 313.15 K, x1 = 0.9325): 1.335 ± 0.033 mPa·s

SMILES: CCOC(=O)c1ccccc1 [ethyl benzoate] + Cc1ccc(C)cc1
- refractive index ([1]; 303.15 K, x1 = 0.0916): 1.4931 ± 0.005
- refractive index ([1]; 303.15 K, x1 = 0.1757): 1.4939 ± 0.005
- refractive index ([1]; 303.15 K, x1 = 0.2719): 1.4951 ± 0.005
- refractive index ([1]; 303.15 K, x1 = 0.3616): 1.4957 ± 0.005
- refractive index ([1]; 303.15 K, x1 = 0.4681): 1.4965 ± 0.005
- refractive index ([1]; 303.15 K, x1 = 0.5703): 1.497 ± 0.005
- refractive index ([1]; 303.15 K, x1 = 0.673): 1.4983 ± 0.005
- refractive index ([1]; 303.15 K, x1 = 0.7781): 1.4988 ± 0.005
- refractive index ([1]; 303.15 K, x1 = 0.8651): 1.4995 ± 0.005
- refractive index ([1]; 303.15 K, x1 = 0.937): 1.5001 ± 0.005
- refractive index ([1]; 313.15 K, x1 = 0.0916): 1.4912 ± 0.005
- refractive index ([1]; 313.15 K, x1 = 0.1757): 1.4924 ± 0.005
- refractive index ([1]; 313.15 K, x1 = 0.2719): 1.4948 ± 0.005
- refractive index ([1]; 313.15 K, x1 = 0.3616): 1.495 ± 0.005
- refractive index ([1]; 313.15 K, x1 = 0.4681): 1.4956 ± 0.005
- refractive index ([1]; 313.15 K, x1 = 0.5703): 1.4963 ± 0.005
- refractive index ([1]; 313.15 K, x1 = 0.673): 1.4972 ± 0.005
- refractive index ([1]; 313.15 K, x1 = 0.7781): 1.4979 ± 0.005
- refractive index ([1]; 313.15 K, x1 = 0.8651): 1.4989 ± 0.005
- refractive index ([1]; 313.15 K, x1 = 0.937): 1.4996 ± 0.005
- mass density ([2]; 303.15 K, x1 = 0.0916): 871.1 ± 3.5 kg/m3
- viscosity ([2]; 303.15 K, x1 = 0.0916): 0.622 ± 0.017 mPa·s
- mass density ([2]; 303.15 K, x1 = 0.1757): 889.3 ± 3.6 kg/m3
- viscosity ([2]; 303.15 K, x1 = 0.1757): 0.679 ± 0.018 mPa·s
- mass density ([2]; 303.15 K, x1 = 0.2719): 908.4 ± 3.7 kg/m3
- viscosity ([2]; 303.15 K, x1 = 0.2719): 0.765 ± 0.02 mPa·s
- mass density ([2]; 303.15 K, x1 = 0.3616): 925.3 ± 3.8 kg/m3
- viscosity ([2]; 303.15 K, x1 = 0.3616): 0.837 ± 0.022 mPa·s
- mass density ([2]; 303.15 K, x1 = 0.4681): 947.1 ± 3.9 kg/m3
- viscosity ([2]; 303.15 K, x1 = 0.4681): 0.951 ± 0.024 mPa·s
- mass density ([2]; 303.15 K, x1 = 0.5703): 964.8 ± 4 kg/m3
- viscosity ([2]; 303.15 K, x1 = 0.5703): 1.045 ± 0.026 mPa·s
- mass density ([2]; 303.15 K, x1 = 0.673): 982.8 ± 4.1 kg/m3
- viscosity ([2]; 303.15 K, x1 = 0.673): 1.181 ± 0.029 mPa·s
- mass density ([2]; 303.15 K, x1 = 0.7781): 1000.8 ± 4.2 kg/m3
- viscosity ([2]; 303.15 K, x1 = 0.7781): 1.325 ± 0.032 mPa·s
- mass density ([2]; 303.15 K, x1 = 0.8651): 1022.8 ± 4.3 kg/m3
- viscosity ([2]; 303.15 K, x1 = 0.8651): 1.469 ± 0.035 mPa·s
- mass density ([2]; 303.15 K, x1 = 0.937): 1040.8 ± 4.4 kg/m3
- viscosity ([2]; 303.15 K, x1 = 0.937): 1.603 ± 0.038 mPa·s
- mass density ([2]; 313.15 K, x1 = 0.0916): 863 ± 3.9 kg/m3
- viscosity ([2]; 313.15 K, x1 = 0.0916): 0.55 ± 0.015 mPa·s
- mass density ([2]; 313.15 K, x1 = 0.1757): 880.9 ± 4 kg/m3
- viscosity ([2]; 313.15 K, x1 = 0.1757): 0.606 ± 0.016 mPa·s
- mass density ([2]; 313.15 K, x1 = 0.2719): 899.9 ± 4 kg/m3
- viscosity ([2]; 313.15 K, x1 = 0.2719): 0.686 ± 0.018 mPa·s
- mass density ([2]; 313.15 K, x1 = 0.3616): 917.3 ± 4.1 kg/m3
- viscosity ([2]; 313.15 K, x1 = 0.3616): 0.739 ± 0.019 mPa·s
- mass density ([2]; 313.15 K, x1 = 0.4681): 937.5 ± 4.2 kg/m3
- viscosity ([2]; 313.15 K, x1 = 0.4681): 0.825 ± 0.021 mPa·s
- mass density ([2]; 313.15 K, x1 = 0.5703): 956 ± 4.3 kg/m3
- viscosity ([2]; 313.15 K, x1 = 0.5703): 0.9 ± 0.023 mPa·s
- mass density ([2]; 313.15 K, x1 = 0.673): 974 ± 4.4 kg/m3
- viscosity ([2]; 313.15 K, x1 = 0.673): 1.008 ± 0.025 mPa·s
- mass density ([2]; 313.15 K, x1 = 0.7781): 993.2 ± 4.5 kg/m3
- viscosity ([2]; 313.15 K, x1 = 0.7781): 1.126 ± 0.028 mPa·s
- mass density ([2]; 313.15 K, x1 = 0.8651): 1010.2 ± 4.6 kg/m3
- viscosity ([2]; 313.15 K, x1 = 0.8651): 1.239 ± 0.03 mPa·s
- mass density ([2]; 313.15 K, x1 = 0.937): 1028.2 ± 4.7 kg/m3
- viscosity ([2]; 313.15 K, x1 = 0.937): 1.339 ± 0.033 mPa·s
